Columns and labels:
[1] = system: Choristoneura fumiferana (spruce budworm) larvae; conditions: Calhoun et al. 1992; cited from earlier work
mice = conditions: ip in mice; Ueno et al. 1971; cited from earlier work
[2] = system: Lambdina fiscellaria (hemlock looper) larvae; assay: Dietary rugulosin in artificial diet, hemlock looper larvae; assay type: in vivo; conditions: 1 week
Description: The toxicity of an endophyte toxin on a pest such as hemlock looper is optionally tested according to the following method. The toxin to be tested is incorporated into an artificial diet suitable for pest growth. Artificial diet is prepared in individual cups, containing toxin concentrations of 5 micromolar, 10 micromolar, 25 micromolar, 50 micromolar and 100 micromolar. One 3rd instar insect is added to each of 75 cups per dilution and incubated in a growth chamber under appropriate conditions such as at 22 C, 55% relative humidity with 16 h light/day. After 4 days, the insects are frozen, weighed and their head capsules measured. A reduction in head capsule size (eg. width) or weight compared to a control sample is indicative of the presence of a toxin. One skilled in the art would understand that this method can be modified to test different concentrations of toxin and that the conditions can be modified to test a variety of different pests.
Lambdina fiscellaria eggs (hemlock looper) were purchased from Forestry Canada in three lots. The eggs were incubated at room temperature for 10 d until larvae emerged. Larvae from each batch emerged within two days of each other and were immediately put on diet in cups as above. […] After 1 week on the test diets, the larvae were frozen, weighed and head capsule width determined.

[3] = system: ovarian cells of the fall armyworm, Spodoptera frugiperda; conditions: Watts et al. 2003; cited from earlier work
[4] = system: Zeiraphera canadensis larvae (spruce budmoth); assay: Dietary rugulosin in artificial diet, wild collected spruce budmoth larvae; assay type: in vivo
Description: Zeiraphera canadensis larvae (spruce budmoth) were collected from the wild near Sussex in mid June. They were immediately put in test vials and tested at rugulosin concentrations of 10, 50, 100 and 150 μM (75 per concentration). After seven days, surviving larvae were frozen and measured.

[5] = Rugulosin analysis of needles by HPLC (toxin in planta); parameters: species or system Picea glauca; conditions: field trees analyzed in 2005, limit of detection 150 ng/g
Description: Rugulosin of purity>95% was used for standards. The presence of rugulosin was then to be determined in a sub-sample of 113 randomly-selected trees of the 330 trees determined to be endophyte positive by antibody. A 100 mg sample of freeze-dried needles was ground to a fine power as describe above and extracted with 10 mL of ice cold petroleum ether by stirring for 45 min under conditions of low light. The flask was kept on ice during the extracting and was covered with aluminium foil to prevent degradation by light. The suspension was filtered by suction and discarded. The needles were returned to the flask and extracted with 10 mL of chloroform for 45 min as above for petroleum ether. The new suspension was then filtered by suction and retained while the needles were discarded. The chloroform extract was washed with 10 mL of 5% NaHCO3 in a separatory funnel. […]
The dried extracts were re-dissolved in 50 μL of acetonitrile, 10 μL was removed and injected into an 1100 series Agilent Technologies HPLC-DAD, using a Synergi Max RP 80A, 250×4.6 column (Phenomonex) and a gradient method adapted from Frisvad (1987). […] Samples were analysed at 389 nm, the maximum UVNIS absorption for rugulosin and peak identity was confirmed by full spectrum data from the diode array detector. The limit of quantification was 150 ng/g freeze dried powdered material; recoveries from spiked needles averaged 75%. […]

Cc1cc(O)c2c(c1)C(=O)[C@]13C(=C2O)C(=O)[C@@H]2[C@H](O)[C@H]1[C@@H]1[C@@H](O)[C@H]3C(=O)C3=C(O)c4c(O)cc(C)cc4C(=O)[C@]312 [rugulosin]
toxicity to C. fumiferana larvae in an artificial diet [1]: toxic
LD50 (mice): 55 mg kg^−1 BW
dietary rugulosin concentration with significantly reduced head capsule [2]: 150 µM
toxicity to cultured cells [3]: toxic
larval weights, controls vs treatment groups by ANOVA (LSD, Tukey) ([4]; 10, 50, 100 and 150 μM rugulosin, seven days): not significantly different
effect of rugulosin on wild collected larvae relative to the other insect species ([4]; diet): same order of magnitude
dietary concentration reducing body weight and/or affecting instar development ([4]; in vitro, diet): ~50 µM
individual branch samples positive for rugulosin or its degradation product [5]: 89%
